Data reported in US20210283261A1, “Compositions and Methods for Treating ALK-Mediated Cancer” (ICAHN SCHOOL OF MEDICINE AT MOUNT SINAI, priority 2017, published 2021).

How the values were obtained:
Type in all cases: cell-based
NPM-ALK fusion protein = target: T1, NPM-ALK fusion protein (Homo sapiens, UniProt Q9UM73); test: Western blot of NPM-ALK fusion protein levels in SU-DHL-1 cells; details: for significantly reduced ALK fusion protein levels (degraders vs negative controls) / effect on NPM-ALK fusion protein levels, concentration dependence: 16 h; for effect on NPM-ALK fusion protein levels, concentration dependence: SU-DHL-1 cells, 1, 3, 10, 30 or 100 nM
T1 construct: endogenous in cells; host or cells: SU-DHL-1; the other entry of the earlier key: NPM1 (P06748, Nucleophosmin)
T1 sequence (Q9UM73 with tags, fused parts or gaps): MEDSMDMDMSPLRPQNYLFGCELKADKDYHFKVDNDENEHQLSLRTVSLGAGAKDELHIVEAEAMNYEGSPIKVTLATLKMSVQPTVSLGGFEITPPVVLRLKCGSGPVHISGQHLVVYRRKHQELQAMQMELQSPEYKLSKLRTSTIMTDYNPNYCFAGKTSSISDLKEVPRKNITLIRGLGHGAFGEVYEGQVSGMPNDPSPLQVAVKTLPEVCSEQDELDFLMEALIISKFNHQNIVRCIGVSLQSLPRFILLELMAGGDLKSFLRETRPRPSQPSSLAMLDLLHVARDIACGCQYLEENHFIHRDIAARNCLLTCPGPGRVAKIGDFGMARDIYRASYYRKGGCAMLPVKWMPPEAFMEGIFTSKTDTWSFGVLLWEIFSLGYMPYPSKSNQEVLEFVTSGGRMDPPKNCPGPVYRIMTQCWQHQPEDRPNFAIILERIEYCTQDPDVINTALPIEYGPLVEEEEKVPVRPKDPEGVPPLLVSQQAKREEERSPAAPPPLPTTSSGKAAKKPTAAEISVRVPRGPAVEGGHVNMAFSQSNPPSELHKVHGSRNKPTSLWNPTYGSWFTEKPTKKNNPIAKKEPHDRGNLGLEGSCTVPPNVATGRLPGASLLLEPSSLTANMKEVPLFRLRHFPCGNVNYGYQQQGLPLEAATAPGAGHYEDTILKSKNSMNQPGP
Protocol: (§1) Cells were cultured in a 37° C. incubator with 5% CO2.
(§2) Cells were washed with cold PBS once and lysed in 1× Laemmli loading buffer directly. […] Membrane was blocked in 5% milk in Tris-buffered saline and Tween 20 (TBST) for 1 h at room temperature, followed by incubation with a primary antibody overnight at 4° C., and a horseradish peroxidase (HRP)-conjugated secondary antibody for 1 h at room temperature. The membrane was imaged by a ChemiDoc MP imaging system (BIO-RAD). Antibodies against GAPDH (abeam), Phospho-ALK (Tyr1507), ALK (Cell Signaling Technology), Tubulin (Santa Cruz) were purchased commercially.
SU-DHL-1 suspension cells were seeded in 12-well plates at a density of 6×10^5/mL and treated with DMSO or indicated compounds at 30 nM or 100 nM for indicated time.
SU-DHL-1 cells were seeded in 12-well plates at a density of 4×10^5/mL and treated with DMSO or indicated serial dilutions of compounds for 16 h. The NPM-ALK fusion protein levels were determined by Western blot and normalized against GPADH (right panel).

ALK fusion protein = target: T2, ALK fusion protein (Homo sapiens, UniProt Q9UM73); test: Western blot of ALK fusion protein levels in NCI-H3122 cells; details: for significantly reduced ALK fusion protein levels (degraders vs negative controls): 16 h; for Dmax at 0.5 µM: NCI-H3122, NCI-H3122 cells, read-out: ALK fusion protein degradation, NCI-H3122 (500 nM)
T2 construct: endogenous in cells; host or cells: NCI-H3122; the other entry of the earlier key: EML4 (Q9HC35, Echinoderm microtubule-associated protein-like 4)
T2 sequence (Q9UM73 with tags, fused parts or gaps): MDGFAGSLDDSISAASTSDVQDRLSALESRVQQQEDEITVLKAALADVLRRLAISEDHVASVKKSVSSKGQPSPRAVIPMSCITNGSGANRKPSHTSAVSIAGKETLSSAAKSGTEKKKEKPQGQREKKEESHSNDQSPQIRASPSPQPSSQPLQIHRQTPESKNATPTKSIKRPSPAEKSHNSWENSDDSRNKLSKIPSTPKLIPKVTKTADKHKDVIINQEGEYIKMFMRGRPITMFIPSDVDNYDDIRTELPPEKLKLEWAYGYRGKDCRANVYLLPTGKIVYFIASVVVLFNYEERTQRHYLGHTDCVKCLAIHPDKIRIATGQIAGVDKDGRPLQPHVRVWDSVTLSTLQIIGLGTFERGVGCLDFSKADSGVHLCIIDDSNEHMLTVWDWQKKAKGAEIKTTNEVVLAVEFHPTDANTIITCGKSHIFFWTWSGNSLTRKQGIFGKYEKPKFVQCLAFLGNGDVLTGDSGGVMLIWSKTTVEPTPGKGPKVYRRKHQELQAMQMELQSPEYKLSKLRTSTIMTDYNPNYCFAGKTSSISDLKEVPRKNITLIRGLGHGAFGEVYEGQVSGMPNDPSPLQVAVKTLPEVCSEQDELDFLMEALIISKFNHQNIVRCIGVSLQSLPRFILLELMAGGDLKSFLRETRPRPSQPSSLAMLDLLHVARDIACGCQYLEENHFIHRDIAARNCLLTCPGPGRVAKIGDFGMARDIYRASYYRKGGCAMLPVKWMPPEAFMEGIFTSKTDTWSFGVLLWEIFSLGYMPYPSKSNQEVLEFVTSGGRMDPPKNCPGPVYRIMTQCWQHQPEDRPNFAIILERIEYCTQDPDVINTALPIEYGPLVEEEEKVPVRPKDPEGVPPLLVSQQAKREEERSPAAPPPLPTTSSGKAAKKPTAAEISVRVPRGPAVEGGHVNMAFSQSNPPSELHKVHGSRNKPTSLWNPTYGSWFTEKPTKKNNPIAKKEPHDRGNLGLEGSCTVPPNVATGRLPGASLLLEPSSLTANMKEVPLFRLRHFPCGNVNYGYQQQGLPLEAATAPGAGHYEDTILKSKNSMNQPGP
Protocol: SU-DHL-1, NCI-H3122 and NCI-H2228 cells were cultured in RPMI-1640 medium supplemented with 10% fetal bovine serum, 50 μg/mL penicillin and streptomycin. Cells were cultured in a 37° C. incubator with 5% CO2.
Cells were washed with cold PBS once and lysed in 1× Laemmli loading buffer directly. Lysates were heated at 99° C. for […], and resolved on 4-15% precast SDS-PAGE (BIO-RAD) and transferred onto PVDF membrane. Membrane was blocked in 5% milk in Tris-buffered saline and Tween 20 (TBST) for 1 h at room temperature, followed by incubation with a primary antibody overnight at 4° C., and a horseradish peroxidase (HRP)-conjugated secondary antibody for 1 h at room temperature. The membrane was imaged by a ChemiDoc MP imaging system (BIO-RAD). Antibodies against GAPDH (abeam), Phospho-ALK (Tyr1507), ALK (Cell Signaling Technology), Tubulin (Santa Cruz) were purchased commercially. […]

ALK = test: Characterization of ALK degraders in ALCL and NSCLC cells (summary); details: summary statement
From the text: Specific exemplary ALK degraders/disruptors were characterized in various different anaplastic large cell lymphoma (ALCL) cells and non-small cell lung cancer (NSCLC) cells (Examples 4-19, FIGS. 1-18). […] This efficacy in suppressing ALK expression and ALK activity correlated with efficacy in inhibiting cancer cell proliferation.

SU-DHL-1 cells = test: Cell viability assay in SU-DHL-1 cells; details: Homo sapiens, 60 h, 2.5 days, CellTiter-Glo, read-out: GI50 (drug concentration that results in 50% growth inhibition)
Protocol: (§3) SU-DHL-1 cells were seeded in 96-well plates at a density of 1×10^4 cells per well, in triplicate. Treated cells with DMSO or indicated serial dilutions of compounds for 2.5 days. Cell growth/survival was measured by using the CellTiter-Glo luminescent cell viability assay following the manufacturer's instructions (Promega) or CCK8 cell viability assay (Sigma). Data was analyzed by using the GraphPad Prism software, Error bars represent ±SD for triplicate experiments.
as §3, with “assay.” for “assay following the manufacturer's instructions (Promega) or CCK8 cell viability assay (Sigma).”, “experiments (left panel).” for “experiments.”
SU-DHL-1 cells were seeded in 96-well plates at a density of 5000 cells per well, in triplicate. The cells were treated with DMSO or indicated serial dilutions of compounds for 3 days. Cell growth was measured using the CellTiter-Glo luminescent cell viability assay. Data were analyzed using the GraphPad Prism.
SU-DHL-1 and NCI-3122 cells were treated with DMSO or indicated serial dilutions of compounds for 3 days. Data were analyzed using the GraphPad Prism.

[1] = target: T3, EML4-ALK v3 fusion protein (Homo sapiens, UniProt Q9UM73); test: Western blot of EML4-ALK v3 fusion protein levels in NCI-H2228 cells; details: 16 h; for effect on EML4-ALK fusion protein levels, concentration dependence: NCI-H2228 cells, 1, 3, 10, 30 or 100 nM
T3 construct: endogenous in cells; host or cells: NCI-H2228
T3 sequence (Q9UM73 1058-1620 limits assumed): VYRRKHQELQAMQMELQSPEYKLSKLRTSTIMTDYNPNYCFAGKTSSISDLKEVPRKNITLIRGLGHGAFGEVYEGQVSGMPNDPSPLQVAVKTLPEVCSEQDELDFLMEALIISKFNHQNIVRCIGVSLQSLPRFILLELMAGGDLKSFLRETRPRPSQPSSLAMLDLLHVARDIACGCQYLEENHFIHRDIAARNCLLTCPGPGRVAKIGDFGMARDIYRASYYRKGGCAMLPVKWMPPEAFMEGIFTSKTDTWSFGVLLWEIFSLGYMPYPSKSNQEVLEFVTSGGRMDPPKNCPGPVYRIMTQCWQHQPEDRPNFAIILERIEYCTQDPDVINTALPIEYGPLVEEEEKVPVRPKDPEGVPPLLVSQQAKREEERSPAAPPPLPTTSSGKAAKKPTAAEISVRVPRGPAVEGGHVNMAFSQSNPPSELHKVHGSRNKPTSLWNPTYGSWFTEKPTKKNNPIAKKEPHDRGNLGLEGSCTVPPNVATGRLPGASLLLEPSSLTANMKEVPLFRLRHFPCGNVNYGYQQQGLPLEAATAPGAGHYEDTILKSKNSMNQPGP
Protocol: as §1, §2
Cells were 70% confluent and treated with DMSO or indicated serial dilutions of compounds for 16 h. The EML4-ALK fusion protein levels were determined by Western blot and normalized against GPADH (right panel).

Compound	significantly reduced ALK fusion protein levels (degraders vs negative controls) (NPM-ALK fusion protein; SU-DHL-1 cells)	significantly reduced ALK fusion protein levels (degraders vs negative controls) (ALK fusion protein; NCI-H3122 cells)	effect on EML4-ALK fusion protein levels, concentration dependence [1]	effect on NPM-ALK fusion protein levels, concentration dependence (NPM-ALK fusion protein)	Dmax at 0.5 µM (ALK fusion protein; 500 nM, Western blot) [%]	other results
Cc1cc(Nc2ncc(Cl)c(Nc3ccccc3S(=O)(=O)C(C)C)n2)c(OC(C)C)cc1C1CCN(CC(=O)NCCOCCOCCOCCOCCNc2cccc3c2C(=O)N(C2CCC(=O)NC2=O)C3=O)CC1 (centres unmarked) [CZ40-53, 2-(4-(4-((5-Chloro-4-((2-(isopropylsulfonyl)phenyl)amino)pyrimidin-2-yl)amino)-5-isopropoxy-2-methylphenyl)piperidin-1-yl)-N-(14-((2-(2,6-dioxopiperidin-3-yl)-1,3-dioxoisoindolin-4-yl)amino)-3,6,9,12-tetraoxatetradecyl)acetamide]	–	–	–	–	–	suppressing both ALK expression and ALK activity (ALK): especially effective; Dmax at 0.03 µM (NPM-ALK fusion protein; SU-DHL-1 cells, 30 nM, Western blot, read-out: ALK fusion protein degradation, SU-DHL-1 (30 nM)): > 80%; GI50 (SU-DHL-1 cells): < 40 nM
Cc1cc(Nc2ncc(Cl)c(Nc3ccccc3S(=O)(=O)C(C)C)n2)c(OC(C)C)cc1C1CCN(CC(=O)NCCCCCCCCCCC(=O)NC(C(=O)N2CC(O)CC2C(=O)NCc2ccc(-c3scnc3C)cc2)C(C)(C)C)CC1 [CZ40-94, (2S,4R)-1-((S)-2-((11-(2-(4-(4-((5-Chloro-4-((2-(isopropylsulfonyl)phenyl)amino)pyrimidin-2-yl)amino)-5-isopropoxy-2-methylphenyl)piperidin-1-yl)acetamido)undecanamido)-3,3-dimethylbutanoyl)-4-hydroxy-N-(4-(4-methylthiazol-5-yl)benzyl)pyrrolidine-2-carboxamide]	–	–	–	–	–	ALK fusion protein degradation, SU-DHL-1 (30 nM) (NPM-ALK fusion protein; SU-DHL-1 cells, 30 nM, Western blot): + (Protein degradation 20-80%)
Cc1cc(Nc2ncc(Cl)c(Nc3ccccc3S(=O)(=O)C(C)C)n2)c(OC(C)C)cc1C1CCN(CC(=O)NCCOCCOCCOCCOCCOCCNc2cccc3c2C(=O)N(C2CCC(=O)N(C)C2=O)C3=O)CC1 (stereo not drawn) [CZ47-48, 2-(4-(4-((5-Chloro-4-((2-(isopropylsulfonyl)phenyl)amino)pyrimidin-2-yl)amino)-5-isopropoxy-2-methylphenyl)piperidin-1-yl)-N-(17-((2-(l-methyl-2,6-dioxopiperidin-3-yl)-1,3-dioxoisoindolin-4-yl)amino)-3,6,9,12,15-pentaoxaheptadecyl)acetamide]	–	–	no significant effect	no significant effect	< 20	–
Cc1cc(Nc2ncc(Cl)c(Nc3ccccc3S(=O)(=O)C(C)C)n2)c(OC(C)C)cc1C1CCNCC1 [ceritinib, reference compound]	–	–	no significant effect	no significant effect	–	effect on ALK protein levels ([1]; NCI-H2228 cells, 100 nM): no distinct effect; effect on NPM-ALK fusion protein levels (NPM-ALK fusion protein; SU-DHL-1 cells, 30 nM or 100 nM): no effect

Continued, in another order:

significantly reduced ALK fusion protein levels (degraders vs negative controls) (NPM-ALK fusion protein; SU-DHL-1 cells)	significantly reduced ALK fusion protein levels (degraders vs negative controls) (ALK fusion protein; NCI-H3122 cells)	effect on EML4-ALK fusion protein levels, concentration dependence [1]	effect on NPM-ALK fusion protein levels, concentration dependence (NPM-ALK fusion protein)	Dmax at 0.5 µM (ALK fusion protein; 500 nM, Western blot) [%]	Compound	other results
not	not	–	–	–	Cc1cc(Nc2ncc(Cl)c(Nc3ccccc3S(=O)(=O)C(C)C)n2)c(OC(C)C)cc1C1CCN(C(=O)COCCOCC(=O)N[C@H](C(=O)N2CC(O)C[C@H]2C(=O)NCc2ccc(-c3scnc3C)cc2)C(C)(C)C)CC1 (stereo in doubt) [HC58-110, (2S,4S)-1-((S)-2-(2-(2-(2-(4-(4-((5-Chloro-4-((2-(isopropylsulfonyl)phenyl)amino)pyrimidin-2-yl)amino)-5-isopropoxy-2-methylphenyl)piperidin-1-yl)-2-oxoethoxy)ethoxy)acetamido)-3,3-dimethylbutanoyl)-4-hydroxy-N-(4-(4-methylthiazol-5-yl)benzyl)pyrrolidine-2-carboxamide]	ALK fusion protein degradation, NCI-H3122 (500 nM) (ALK fusion protein; NCI-H3122 cells, 500 nM, Western blot): − (Protein degradation <20%)
–	–	no significant effect	no significant effect	< 20	Cc1cc(Nc2ncc(Cl)c(Nc3ccccc3S(=O)(=O)C(C)C)n2)c(OC(C)C)cc1C1CCN(CC(=O)NCCNc2cccc3c2C(=O)N(C2CCC(=O)N(C)C2=O)C3=O)CC1 (stereo not drawn) [CZ47-40, 2-(4-(4-((5-Chloro-4-((2-(isopropylsulfonyl)phenyl)amino)pyrimidin-2-yl)amino)-5-isopropoxy-2-methylphenyl)piperidin-1-yl)-N-(2-((2-(l-methyl-2,6-dioxopiperidin-3-yl)-1,3-dioxoisoindolin-4-yl)amino)ethyl)acetamide]	–
not	not	–	–	< 20	Cc1cc(Nc2ncc(Cl)c(Nc3ccccc3S(=O)(=O)C(C)C)n2)c(OC(C)C)cc1C1CCN(C(=O)CCCC(=O)N[C@H](C(=O)N2C[C@@H](O)C[C@H]2C(=O)NCc2ccc(-c3scnc3C)cc2)C(C)(C)C)CC1 [HC58-111, (2S,4S)-1-((S)-2-(5-(4-(4-((5-Chloro-4-((2-(isopropylsulfonyl)phenyl)amino)pyrimidin-2-yl)amino)-5-isopropoxy-2-methylphenyl)piperidin-1-yl)-5-oxopentanamido)-3,3-dimethylbutanoyl)-4-hydroxy-N-(4-(4-methylthiazol-5-yl)benzyl)pyrrolidine-2-carboxamide]	–
not	not	–	–	< 20	Cc1cc(Nc2ncc(Cl)c(Nc3ccccc3S(=O)(=O)C(C)C)n2)c(OC(C)C)cc1C1CCN(C(=O)CCCCC(=O)N[C@H](C(=O)N2C[C@@H](O)C[C@H]2C(=O)NCc2ccc(-c3scnc3C)cc2)C(C)(C)C)CC1 [HC58-112, (2S,4S)-1-((S)-2-(6-(4-(4-((5-chloro-4-((2-(isopropylsulfonyl)phenyl)amino)pyrimidin-2-yl)amino)-5-isopropoxy-2-methylphenyl)piperidin-1-yl)-6-oxohexanamido)-3,3-dimethylbutanoyl)-4-hydroxy-N-(4-(4-methylthiazol-5-yl)benzyl)pyrrolidine-2-carboxamide]	–
